For experiment [1], the species on record is Cavia porcellus. The experiment in a line: The compound was tested for inhibition against methacholine induced tonic contraction in guinea pig ileum. The conditions noted are these: read-out: pA2 (converted). In kind it is functional.
The target of experiment [2] is Muscarinic acetylcholine receptor. As to the kind of experiment: Inhibition of [3H]QNB binding against muscarinic acetylcholine receptor in guinea pig ileum. In kind it is tissue-based, Cavia porcellus.
Experiment [3] has the same target. As to the kind of experiment: Inhibition of [3H]QNB binding against muscarinic acetylcholine receptor in rat heart.
Experiment [4] has the same target.
Description: Inhibition of [3H]QNB binding against muscarinic acetylcholine receptor in rat brain.
For experiment [5], the species on record is Cavia porcellus. As to the kind of experiment: Inhibition of methacholine induced tonic contraction of guinea pig ileum. In kind it is functional.
Experiment [6] concerns the target T1, Muscarinic acetylcholine receptor M1 (Rattus norvegicus, UniProt P08482).
T1 sequence (P08482 whole entry): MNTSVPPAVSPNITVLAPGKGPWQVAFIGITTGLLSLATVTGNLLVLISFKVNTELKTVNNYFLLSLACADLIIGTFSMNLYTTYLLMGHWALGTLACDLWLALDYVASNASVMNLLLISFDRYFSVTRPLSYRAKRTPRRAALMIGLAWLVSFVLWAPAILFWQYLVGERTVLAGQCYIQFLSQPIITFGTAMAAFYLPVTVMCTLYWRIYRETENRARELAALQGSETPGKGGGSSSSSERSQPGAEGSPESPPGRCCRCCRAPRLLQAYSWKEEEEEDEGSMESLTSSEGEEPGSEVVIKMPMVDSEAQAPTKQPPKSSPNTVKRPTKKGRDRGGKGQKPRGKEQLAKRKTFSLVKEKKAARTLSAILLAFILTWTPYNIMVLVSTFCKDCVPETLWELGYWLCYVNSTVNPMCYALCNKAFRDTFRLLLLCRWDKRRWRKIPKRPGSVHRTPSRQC
The experiment in a line: Binding activity against rat muscarinic acetylcholine receptor M1 using [3H]QNB as the radioligand.

The target of experiment [7] is Muscarinic acetylcholine receptor. As to the kind of experiment: Inhibition of methacholine induced phasic contraction of guinea pig ileum. In kind it is functional, tissue-based, Cavia porcellus.
The target is the same in experiment [8]. The experiment in a line: Inhibition of [3H]pirenzepine binding against muscarinic acetylcholine receptor in rat brain. In kind it is tissue-based.
For experiment [9], the species on record is Cavia porcellus. The experiment in a line: Inhibition against methacholine induced phasic contraction in guinea pig ileum. In kind it is functional. The conditions noted are these: read-out: pA2 (converted).
Experiment [10] deals with T2, Muscarinic acetylcholine receptor M3 (Rattus norvegicus, UniProt P08483). As to the kind of experiment: Binding activity against rat muscarinic acetylcholine receptor M3 using [3H]QNB as the radioligand.
T2 sequence (P08483 whole entry): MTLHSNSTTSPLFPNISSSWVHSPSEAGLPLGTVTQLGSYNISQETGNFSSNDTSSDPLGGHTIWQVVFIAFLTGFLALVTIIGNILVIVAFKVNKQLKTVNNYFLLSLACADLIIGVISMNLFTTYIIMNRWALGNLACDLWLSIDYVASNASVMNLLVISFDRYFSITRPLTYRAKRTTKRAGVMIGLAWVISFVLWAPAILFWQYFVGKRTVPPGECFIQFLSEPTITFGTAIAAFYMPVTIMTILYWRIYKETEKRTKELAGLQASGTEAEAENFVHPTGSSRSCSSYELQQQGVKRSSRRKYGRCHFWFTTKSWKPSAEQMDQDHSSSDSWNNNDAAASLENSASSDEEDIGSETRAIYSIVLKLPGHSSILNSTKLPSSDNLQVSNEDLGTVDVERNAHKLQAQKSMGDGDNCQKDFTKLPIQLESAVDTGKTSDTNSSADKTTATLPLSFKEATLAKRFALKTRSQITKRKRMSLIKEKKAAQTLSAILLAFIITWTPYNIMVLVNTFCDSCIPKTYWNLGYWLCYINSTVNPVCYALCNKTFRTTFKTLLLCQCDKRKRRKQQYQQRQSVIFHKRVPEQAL
The species entered for experiment [11] is Cavia porcellus. As to the kind of experiment: The compound was tested for inhibition against methacholine induced tonic contraction in guinea pig ileum. The conditions noted are these: read-out: pA2 (converted). In kind it is functional.
The species entered for experiment [12] is Cavia porcellus. As to the kind of experiment: The compound was tested for inhibition against tonic contraction in guinea pig ileum. In kind it is functional. The conditions noted are these: read-out: pA2 (converted).
The target of experiment [13] is Muscarinic acetylcholine receptor. The source holds these as a separate data set.
Description: Inhibition of [3H]OXO-M binding against muscarinic acetylcholine receptor in rat brain membranes
Experiment [14] has the same target. The experiment in a line: The compound was tested for inhibition of [3H]OXO-M binding against muscarinic acetylcholine receptor in rat brain membranes. In kind it is cell membranes.
Experiment [15] deals with T1, Muscarinic acetylcholine receptor M1. As to the kind of experiment: The compound was tested for binding activity against muscarinic acetylcholine receptor M1, using [3H]QNB as the radioligand.
Experiment [16] has as its target T2, Muscarinic acetylcholine receptor M3. The experiment in a line: The compound was tested for binding activity against muscarinic acetylcholine receptor M3, using [3H]-QNB as the radioligand.

Where “and” joins values, the source holds several entries; their conditions need not be identical. Equal values may be shown once.

Usually Ki stands for the equilibrium dissociation constant of an inhibitor or competing ligand from its target. A lower Ki goes with higher affinity.

Consider `CN1CC2CC1C[C@H](OC(=O)C(C)(c1ccccc1)c1ccccc1)C2` (some centres not stated), for which the Kb in the experiment filed under Cavia porcellus [1] is 1.91 nM; in the experiment filed under Cavia porcellus [9] it was 1.86 nM. For the same compound, the Ki stood at 9.64 nM in [2]; 12.9 nM in experiment [3]; 4.2 nM in experiment [4]; 2.94 nM in experiment [6]; 12.7 nM in experiment [8]; 9.28 nM in [10]. The “-Log Kd” value is reported as 8.75 in the experiment listed under Cavia porcellus [5] and 8.44 in experiment [7].
For `CN1CC2CC1C[C@H](OC(=O)C(c1ccccc1)c1ccccc1)C2` (some centres not stated), the results for the Kb in the experiment filed under Cavia porcellus [1] and in the experiment listed under Cavia porcellus [9] were 1.82 nM and 1.55 nM, respectively. For the same compound, the Ki in experiment [2] came to 19.1 nM; in [3] it was 16.9 nM; in experiment [4], 4.07 nM; in experiment [6] it was 4.75 nM; in experiment [8] it was 5.73 nM; in [10], 11.2 nM. For the same compound, the “-Log Kd” value in [7] is 8.27 and 8.32.
As for `CC(C(=O)O[C@H]1CC2CC(C1)N(Cc1ccccc1)C2)(c1ccccc1)c1ccccc1` (some centres not stated), the Ki is 12.8 nM in experiment [2]; 9.28 nM in [3]; 9.53 nM in [4]; 10.9 nM in [6]; 27.9 nM in experiment [8]; 12.5 nM in [10]. Further, the “-Log Kd” value in the experiment filed under Cavia porcellus [5] is on record as 8.03; in experiment [7], 8.04. The Kb in the experiment filed under Cavia porcellus [11] is 5.62 nM; in the experiment listed under Cavia porcellus [9], 6.17 nM; in the experiment listed under Cavia porcellus [12], 5.62 nM.
In the case of `CC(=O)O[C@H]1CC2CC(C1)N(C(C)c1ccccc1)C2` (some centres not stated), the Ki came out at 4570 nM in [2]; 3530 nM in experiment [4]; 2770 nM in [6]; 113 nM in experiment [13]; 3380 nM in [10].
For `CN1CC2CC1C[C@@H](OC(=O)C(c1ccccc1)c1ccccc1)C2` (some centres not stated), the values for the Kb in the experiment filed under Cavia porcellus [1] and in the experiment listed under Cavia porcellus [9] were 1.86 nM and 1.74 nM, respectively. In addition, the Ki in experiment [2] is 8.21 nM; in experiment [3], 5.49 nM; in [4], 1.89 nM; in [6], 1.23 nM; in experiment [8], 2.87 nM; in experiment [10] it was 4.3 nM. The “-Log Kd” value in experiment [7] turned out to be 8.45.
For `CC(=O)O[C@H]1CC2CC(C1)N([C@H](C)c1ccccc1)C2` (some centres not stated), the inhibition constant Ki in experiment [2] amounted to 7700 nM; in [4], 10100 nM; in experiment [6] it was 12800 nM; in [13], 1950 nM; in [10] it was 14900 nM.
Take `CC(=O)O[C@H]1CC2CC(C1)N(C)C2` (single isomer, unassigned; (+)): the Ki is 21000 nM in experiment [2]; 8560 nM in experiment [4]; 13900 nM in experiment [6]; 2170 nM in experiment [14]; 19700 nM in experiment [10].
For `CN1CC2CC1C[C@@H](OC(=O)C(C)(c1ccccc1)c1ccccc1)C2` (single isomer, unassigned; (+)), the Ki in experiment [2] was found to be 0.054 nM; in experiment [4], 0.0297 nM; in experiment [15], 0.0383 nM; in [16] it was 0.0986 nM.
On to `CC(=O)O[C@@H]1CC2CC(C1)N(C)C2` (single isomer, unassigned; (+)), for which the Ki was 10400 nM in [2]; 6470 nM in experiment [4]; 7110 nM in experiment [6]; 10400 nM in experiment [13]; 11300 nM in experiment [10].
On to `CC(=O)O[C@H]1CC2CC(C1)N(C)C2` (single isomer, unassigned; (-)), for which the Ki stood at 4190 nM in experiment [2]; 3730 nM in [4]; 7210 nM in experiment [6]; 6550 nM in experiment [13]; 4970 nM in [10].
For the compound `CN1CC2CC1C[C@@H](OC(=O)C(C)(c1ccccc1)c1ccccc1)C2` (single isomer, unassigned; (-)), the Ki is 14.5 nM in experiment [2], 6.36 nM in experiment [4], 7.89 nM in [6] and 10.7 nM in experiment [10].
Consider `CC(=O)O[C@@H]1CC2CC(C1)N(C)C2` (single isomer, unassigned; (-)), for which the Ki was 38100 nM in experiment [2]; 23000 nM in experiment [4]; 22100 nM in experiment [6]; 33900 nM in [13]; 46700 nM in experiment [10].
Regarding `CN1CC2CC1C[C@@H](OC(=O)C(C)(c1ccccc1)c1ccccc1)C2` (stereo in doubt; 1), the Ki worked out at 0.279 nM in experiment [2]; 0.196 nM in experiment [3]; 0.13 nM in [4]; 0.0881 nM in experiment [6]; 0.118 nM in [8]; 0.472 nM in experiment [10]. The “-Log Kd” value in experiment [7] is 10.46. For the same compound, the Kb in the experiment filed under Cavia porcellus [9] was 0.0741 nM.
Take `CC(=O)O[C@H]1CC2CC(C1)N(C)C2` (stereo in doubt; 8): the Ki in experiment [2] was 8400 nM; in [4], 7530 nM; in experiment [6], 9200 nM; in [13] it was 1150 nM; in experiment [8] it was 9810 nM; in experiment [10], 8990 nM.
Take `CC(=O)O[C@@H]1CC2CC(C1)N(C)C2` (stereo in doubt; 9): the Ki stood at 11900 nM in experiment [2]; 8550 nM in [4]; 8620 nM in experiment [6]; 7820 nM in experiment [13]; 12500 nM in experiment [8]; 14100 nM in [10].
On to `CC(=O)O[C@@H]1C[C@@H]2C[C@H](C1)N([C@H](C)c1ccccc1)C2` (stereo in doubt; 12), for which the Ki in experiment [2] worked out at 12900 nM; in experiment [4], 19100 nM; in [6] it was 23100 nM; in experiment [13], 23300 nM; in experiment [10] it was 29900 nM.
For `CC(=O)O[C@@H]1C[C@@H]2C[C@H](C1)N([C@H](C)c1ccccc1)C2` (stereo in doubt; 13), the Ki is 3750 nM in experiment [2]; 4710 nM in experiment [4]; 9180 nM in experiment [6]; 4150 nM in experiment [13]; 4280 nM in [10].

These data come from ChEMBL document CHEMBL1125891, “Synthesis, molecular modeling studies, and muscarinic receptor activity of azaprophen analogues” (J Med Chem, 1991).
